Read-outs that look alike come from different tables or passages of the source.
How the values were obtained:
[1] = log P determination by HPLC (EEC Directive 79/831 Annex V.A8); format: physicochemical
Experimental: The measurements were carried out using an Agilent 1100 LC system with a 50*4.6 Zorbax Eclipse C18 1.8 μm column (oven temperature 55° C., flow rate 2.0 ml/min).
The following mobile phases were used:
Mobile phase A: acetonitrile+1000 μl of formic acid/l
Mobile phase B: Millipore water+900 μl of formic acid/l

[2] = tested on: caterpillars of the armyworm (Spodoptera frugiperda); experiment: Spodoptera frugiperda test (SPODFR spray treatment); format: in vivo; details: Spodoptera frugiperda, foliar, read-out: effect in % (caterpillars killed)
Excerpt: Solvent: 78.0 parts by weight of acetone

[3] = tested on: larvae of the mustard beetle (Phaedon cochleariae); experiment: Phaedon test (PHAECO spray treatment); details: Phaedon cochleariae, in Brassica rapa, foliar, read-out: effect in % (beetle larvae killed)
[4] = reversed-phase HPLC, Zorbax Eclipse C18 column, by HPLC according to EEC Directive 79/831 Annex V.A8, read-out: log P
[5] = application rate 100 g/ha, maize leaf discs
[6] = reversed-phase HPLC, Zorbax Eclipse C18 column, determined by HPLC according to EEC Directive 79/831 Annex V.A8, read-out: log P

Row | SMILES | chromatographic logP ([1]; log P) | pest or weed control at 100 g/ha ([2]; in Zea mays) | pest or weed control at 100 g/ha [3] | chromatographic logP [1, 4] | pest or weed control at 100 g/ha [2, 5] | chromatographic logP [1, 6]
1 | O=C(NC1CC1)c1cc(Cl)cc(Cl)c1NC(=O)c1cc(Cn2nnnc2C(F)F)nn1-c1ncccc1Cl [Example 469] | 2.44 | ≥ 80% | ≥ 80% | – | – | –
2 | Cc1cc(Br)cc(C(=O)NC(C)C)c1NC(=O)c1cc(Cn2nnc(C(F)(F)F)n2)nn1-c1ncccc1C(F)(F)F [Example 249] | – | – | ≥ 80% | 3.76 | ≥ 80% | –
3 | CCNC(=O)c1cc(C#N)cc(C)c1NC(=O)c1cc(Cn2nnc(C(F)(C(F)(F)F)C(F)(F)F)n2)nn1-c1ncccc1Cl [Example 369] | 3.57 | ≥ 80% | ≥ 80% | – | – | –
4 | O=C(NC1CCC1)c1cc(Cl)cc(Cl)c1NC(=O)c1cc(Cn2nnc(C(F)(F)C(F)(F)F)n2)nn1-c1ncccc1Cl [Example 157] | 3.92 | ≥ 80% | ≥ 80% | – | – | –
5 | Cc1cc(C#N)cc(C(=O)NCC(C)C)c1NC(=O)c1cc(Cn2nnc(C(F)(F)F)n2)nn1-c1ncccc1Cl [Example 38] | 3.37 | ≥ 80% | ≥ 80% | – | – | –
6 | Cc1cc(C#N)cc(C(=O)NCC2CCCCC2)c1NC(=O)c1cc(Cn2nnnc2C(F)(F)F)nn1-c1ncccc1Cl [Example 195] | 3.26 | ≥ 80% | ≥ 80% | – | – | –
7 | Cc1cc(Br)cc(C(=O)NC(C)C)c1NC(=O)c1cc(Cn2nnc(C(F)(F)F)n2)nn1-c1ncccc1Br [Example 355] | – | – | ≥ 80% | 3.66 | ≥ 80% | –
8 | CNC(=O)c1cc(Cl)cc(C)c1NC(=O)c1cc(Cn2nnnc2C(F)(F)C(F)(F)F)nn1-c1ncccc1Cl [Example 198] | 3.1 | ≥ 80% | ≥ 80% | – | – | –
9 | O=C(NCC1CC1)c1cc(Cl)cc(Cl)c1NC(=O)c1cc(Cn2nnc(C(F)(F)F)n2)nn1-c1ncccc1Cl [Example 63] | 3.47 | ≥ 80% | ≥ 80% | – | – | –
10 | CNC(=O)c1cc(Br)cc(C)c1NC(=O)c1cc(Cn2nnc(C(F)(F)F)n2)nn1-c1ncccc1Cl [Example 28] | 3.05 | ≥ 80% | ≥ 80% | – | – | –
11 | Cc1cc(I)cc(C(N)=O)c1NC(=O)c1cc(Cn2nnc(C(F)(F)F)n2)nn1-c1ncccc1C(F)(F)F [Example 250] | – | – | ≥ 80% | 3.16 | ≥ 80% | –
12 | CCNC(=O)c1cc(I)cc(C)c1NC(=O)c1cc(Cn2nnc(C(F)(C(F)(F)F)C(F)(F)F)n2)nn1-c1ncccc1Cl [Example 380] | 4.2 | ≥ 80% | ≥ 80% | – | – | –
13 | Cc1cc(I)cc(C(=O)NC(C)C)c1NC(=O)c1cc(Cn2nnc(C(F)(F)F)n2)nn1-c1ncccc1C(F)(F)F [Example 243] | – | – | ≥ 80% | 3.9 | ≥ 80% | –
14 | CNC(=O)c1cc(C#N)cc(C)c1NC(=O)c1cc(Cn2nnc(C(F)(F)C(F)(F)F)n2)nn1-c1ncccc1Cl [Example 213] | 3.05 | ≥ 80% | ≥ 80% | – | – | –
15 | CCNC(=O)c1cc(Cl)cc(C)c1NC(=O)c1cc(Cn2nnc(C(F)F)n2)nn1-c1ncccc1Cl [Example 257] | 2.69 | ≥ 80% | ≥ 80% | – | – | –
16 | CNC(=O)c1cc(Br)cc(C)c1NC(=O)c1cc(Cn2nnc(C(F)(F)C(F)(F)F)n2)nn1-c1ncccc1Cl [Example 143] | 3.5 | ≥ 80% | ≥ 80% | – | – | –
17 | Cc1cc(Cl)cc(C(=O)NC(C)(C)C)c1NC(=O)c1cc(Cn2nnc(C(F)(F)F)n2)nn1-c1ccccc1 [Example 403] | – | – | ≥ 80% | – | ≥ 80% | 4.14
18 | Cc1cc(Cl)cc(C(=O)NCC#N)c1NC(=O)c1cc(Cn2nnc(C(F)F)n2)nn1-c1ncccc1Cl [Example 261] | 2.5 | ≥ 80% | ≥ 80% | – | – | –
19 | Cc1cc(Cl)cc(C(=O)NC2CC2)c1NC(=O)c1cc(Cn2nnc(C(F)(C(F)(F)F)C(F)(F)F)n2)nn1-c1ncccc1Cl [Example 365] | 3.94 | ≥ 80% | ≥ 80% | – | – | –
20 | CC(NC(=O)c1cc(Cl)cc(Cl)c1NC(=O)c1cc(Cn2nnc(C(F)(F)F)n2)nn1-c1ncccc1Cl)C1CC1 (stereo not drawn) [Example 56] | 3.71 | ≥ 80% | ≥ 80% | – | – | –

Row | SMILES | chromatographic logP ([1]; log P) | pest or weed control at 100 g/ha ([2]; in Zea mays) | pest or weed control at 100 g/ha [3] | chromatographic logP [1, 4] | pest or weed control at 100 g/ha [2, 5] | chromatographic logP [1, 6]
21 | CCNC(=O)c1cc(I)cc(C)c1NC(=O)c1cc(Cn2nnc(C(F)(F)F)n2)nn1-c1ncccc1Cl [Example 66] | 3.47 | ≥ 80% | ≥ 80% | – | – | –
22 | Cc1cc(I)cc(C(=O)NCC#N)c1NC(=O)c1cc(Cn2nnc(C(F)(C(F)(F)F)C(F)(F)F)n2)nn1-c1ncccc1Cl [Example 384] | 3.82 | ≥ 80% | ≥ 80% | – | – | –
23 | CNC(=O)c1cc(F)cc(C)c1NC(=O)c1cc(Cn2nnc(C(F)(F)C(F)(F)F)n2)nn1-c1ncccc1Cl [Example 147] | 3.09 | ≥ 80% | ≥ 80% | – | – | –
24 | Cc1cc(Cl)cc(C(=O)NCC#N)c1NC(=O)c1cc(Cn2nnc(C(F)(F)F)n2)nn1-c1ncccc1C(F)(F)F [Example 252] | – | – | ≥ 80% | 3.28 | ≥ 80% | –
25 | CCNC(=O)c1cc(C#N)cc(C)c1NC(=O)c1cc(Cn2nnc(C(F)(F)C(F)(F)F)n2)nn1-c1ncccc1Cl [Example 215] | 3.24 | ≥ 80% | ≥ 80% | – | – | –
26 | Cc1cc(I)cc(C(=O)NCC2CC2)c1NC(=O)c1cc(Cn2nnc(C(F)F)n2)nn1-c1ncccc1Cl [Example 279] | 3.27 | ≥ 80% | ≥ 80% | – | – | –
27 | O=C(NC1CC1)c1cc(Cl)cc(Cl)c1NC(=O)c1cc(Cn2nnnc2C(F)(F)C(F)(F)F)nn1-c1ncccc1Cl [Example 204] | 3.24 | ≥ 80% | ≥ 80% | – | – | –
28 | Cc1cc(Br)cc(C(=O)NC(C)(C)C)c1NC(=O)c1cc(Cn2nnc(C(F)(F)F)n2)nn1-c1ncccc1C(F)(F)F [Example 245] | – | – | ≥ 80% | 4.13 | ≥ 80% | –
29 | CC(C)NC(=O)c1cc(Cl)cc(Cl)c1NC(=O)c1cc(Cn2nnc(C(F)(F)F)n2)nn1-c1ncccc1Cl [Example 61] | 3.41 | ≥ 80% | ≥ 80% | – | – | –
30 | Cc1cc(Cl)cc(C(=O)NC(C)(C)C)c1NC(=O)c1cc(Cn2nnc(C(F)(F)F)n2)nn1-c1ccccc1Br [Example 348] | – | – | ≥ 80% | 4.43 | ≥ 80% | –
31 | Cc1cc(I)cc(C(=O)NC2CC2)c1NC(=O)c1cc(Cn2nnnc2C(F)(F)F)nn1-c1ncccc1C(F)(F)F [Example 456] | – | – | ≥ 80% | – | ≥ 80% | 3.31
32 | Cc1cc(C#N)cc(C(=O)NC(C)(C)C)c1NC(=O)c1cc(Cn2nnc(C(F)(F)F)n2)nn1-c1ccccc1Cl [Example 343] | – | – | ≥ 80% | 3.92 | ≥ 80% | –
33 | CCNC(=O)c1cc(Cl)cc(C)c1NC(=O)c1cc(Cn2nnc(C(F)(F)F)n2)nn1-c1ncccc1Cl [Example 33] | 3.23 | ≥ 80% | ≥ 80% | – | – | –
34 | Cc1cc(C#N)cc(C(=O)NC(C)(C)C)c1NC(=O)c1cc(Cn2nnc(C(F)F)n2)nn1-c1ncccc1Cl [Example 267] | 2.88 | ≥ 80% | ≥ 80% | – | – | –
35 | CSC[C@H](C)NC(=O)c1cc(C#N)cc(C)c1NC(=O)c1cc(Cn2nnc(C(F)(F)F)n2)nn1-c1ncccc1Cl [Example 14] | 3.28 | ≥ 80% | ≥ 80% | – | – | –
36 | CNC(=O)c1cc(Cl)cc(Cl)c1NC(=O)c1cc(Cn2nnc(C(F)F)n2)nn1-c1ncccc1Cl [Example 282] | 2.48 | ≥ 80% | ≥ 80% | – | – | –
37 | CNC(=O)c1cc(Cl)cc(C)c1NC(=O)c1cc(Cn2nnc(C(F)(F)F)n2)nn1-c1ccccc1F [Example 311] | – | – | ≥ 80% | 3.32 | ≥ 80% | –
38 | Cc1cc(Cl)cc(C(=O)NCC2CC2)c1NC(=O)c1cc(Cn2nnc(C(F)(F)C(F)(F)F)n2)nn1-c1ncccc1Cl [Example 131] | 3.93 | ≥ 80% | ≥ 80% | – | – | –
39 | Cc1cc(Cl)cc(C(N)=O)c1NC(=O)c1cc(Cn2nnc(C(F)(F)C(F)(F)F)n2)nn1-c1ncccc1Cl [Example 130] | 3.15 | ≥ 80% | ≥ 80% | – | – | –
40 | Cc1cc(I)cc(C(=O)NCC2CC2)c1NC(=O)c1cc(Cn2nnc(C(F)(C(F)(F)F)C(F)(F)F)n2)nn1-c1ncccc1Cl [Example 383] | – | – | ≥ 80% | 4.51 | ≥ 80% | –

— US8324390B2, “Tetrazole-substituted anthranilamides as pesticides” (Bayer CropScience AG, priority 2008, dated 2012)
